Tests used:
SK-OV-3 = test: Nonspecific cytotoxicity against human SKOV3 cells after 44 hrs by MTT assay; format: functional; details: SK-OV-3, 44 h
MCF7 = test: Nonspecific cytotoxicity against human MCF7 cells after 44 hrs by MTT assay; format: functional; details: MCF7, 44 h
DU-145 = test: Nonspecific cytotoxicity against human DU145 cells after 44 hrs by MTT assay; format: functional; details: DU-145, 44 h
[1] = target: T1, Kinesin-like protein KIFC3 (Homo sapiens) (UniProt Q9BVG8); test: Inhibition of KIFC3 (unknown origin)-mediated ATP hydrolysis assessed as residual activity at 1 uM after 10 to 20 mins by spectrophotometric analysis
T1 sequence (whole entry): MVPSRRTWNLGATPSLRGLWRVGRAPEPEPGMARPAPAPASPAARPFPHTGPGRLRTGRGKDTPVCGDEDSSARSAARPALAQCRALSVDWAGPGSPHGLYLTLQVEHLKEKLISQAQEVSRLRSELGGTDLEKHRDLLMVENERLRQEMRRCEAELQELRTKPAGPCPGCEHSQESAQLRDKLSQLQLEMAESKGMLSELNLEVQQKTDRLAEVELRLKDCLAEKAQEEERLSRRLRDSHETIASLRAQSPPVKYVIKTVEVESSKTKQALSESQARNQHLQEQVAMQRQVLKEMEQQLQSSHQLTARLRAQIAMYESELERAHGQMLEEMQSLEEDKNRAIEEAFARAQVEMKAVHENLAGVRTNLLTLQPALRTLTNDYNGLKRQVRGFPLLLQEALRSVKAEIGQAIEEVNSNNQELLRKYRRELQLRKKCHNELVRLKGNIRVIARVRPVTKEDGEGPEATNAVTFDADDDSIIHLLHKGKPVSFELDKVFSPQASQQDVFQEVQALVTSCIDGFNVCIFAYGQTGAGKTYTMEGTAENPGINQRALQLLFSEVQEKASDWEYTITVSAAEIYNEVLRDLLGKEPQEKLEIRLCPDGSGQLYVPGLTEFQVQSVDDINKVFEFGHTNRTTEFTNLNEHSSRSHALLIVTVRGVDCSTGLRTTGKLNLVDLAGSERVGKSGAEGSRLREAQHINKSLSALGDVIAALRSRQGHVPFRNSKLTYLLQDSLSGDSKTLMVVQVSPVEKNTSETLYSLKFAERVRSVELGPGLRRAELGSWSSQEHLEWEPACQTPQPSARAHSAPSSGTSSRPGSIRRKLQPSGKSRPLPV

[2] = target: T2, Kinesin-1 heavy chain (Homo sapiens) (UniProt P33176); test: Inhibition of KNH (unknown origin)-mediated ATP hydrolysis assessed as residual activity at 1 uM after 10 to 20 mins by spectrophotometric analysis
T2 sequence (whole entry): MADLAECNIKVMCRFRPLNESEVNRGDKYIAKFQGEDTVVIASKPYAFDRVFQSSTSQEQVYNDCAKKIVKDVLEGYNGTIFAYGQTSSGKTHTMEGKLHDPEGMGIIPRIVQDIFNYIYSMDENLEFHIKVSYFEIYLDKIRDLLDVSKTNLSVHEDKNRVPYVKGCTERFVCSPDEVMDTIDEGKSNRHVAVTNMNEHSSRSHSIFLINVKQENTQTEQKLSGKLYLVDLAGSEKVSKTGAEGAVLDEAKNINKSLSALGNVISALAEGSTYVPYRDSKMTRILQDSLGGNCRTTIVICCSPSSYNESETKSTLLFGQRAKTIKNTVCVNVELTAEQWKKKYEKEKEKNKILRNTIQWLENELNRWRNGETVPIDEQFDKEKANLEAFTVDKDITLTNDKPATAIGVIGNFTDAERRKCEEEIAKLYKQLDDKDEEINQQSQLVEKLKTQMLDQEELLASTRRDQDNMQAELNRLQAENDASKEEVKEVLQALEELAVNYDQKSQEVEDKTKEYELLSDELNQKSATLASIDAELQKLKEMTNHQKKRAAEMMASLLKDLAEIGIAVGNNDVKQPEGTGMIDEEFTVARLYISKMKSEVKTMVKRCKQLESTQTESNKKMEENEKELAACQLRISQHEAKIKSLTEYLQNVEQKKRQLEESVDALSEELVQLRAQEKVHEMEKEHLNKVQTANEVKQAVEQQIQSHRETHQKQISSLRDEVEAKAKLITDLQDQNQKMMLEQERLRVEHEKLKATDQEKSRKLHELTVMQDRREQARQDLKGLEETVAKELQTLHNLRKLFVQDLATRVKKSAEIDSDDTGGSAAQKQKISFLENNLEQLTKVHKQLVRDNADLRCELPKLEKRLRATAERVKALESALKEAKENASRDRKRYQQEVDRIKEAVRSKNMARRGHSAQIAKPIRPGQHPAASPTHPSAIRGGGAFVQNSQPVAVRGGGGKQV

[3] = target: Centromere-associated protein E (Homo sapiens) (UniProt Q02224); test: Inhibition of CENP-E (unknown origin)-mediated ATP hydrolysis assessed as residual activity at 1 uM after 10 to 20 mins by spectrophotometric analysis
Sequence of Centromere-associated protein E (Homo sapiens) (Q02224 whole entry): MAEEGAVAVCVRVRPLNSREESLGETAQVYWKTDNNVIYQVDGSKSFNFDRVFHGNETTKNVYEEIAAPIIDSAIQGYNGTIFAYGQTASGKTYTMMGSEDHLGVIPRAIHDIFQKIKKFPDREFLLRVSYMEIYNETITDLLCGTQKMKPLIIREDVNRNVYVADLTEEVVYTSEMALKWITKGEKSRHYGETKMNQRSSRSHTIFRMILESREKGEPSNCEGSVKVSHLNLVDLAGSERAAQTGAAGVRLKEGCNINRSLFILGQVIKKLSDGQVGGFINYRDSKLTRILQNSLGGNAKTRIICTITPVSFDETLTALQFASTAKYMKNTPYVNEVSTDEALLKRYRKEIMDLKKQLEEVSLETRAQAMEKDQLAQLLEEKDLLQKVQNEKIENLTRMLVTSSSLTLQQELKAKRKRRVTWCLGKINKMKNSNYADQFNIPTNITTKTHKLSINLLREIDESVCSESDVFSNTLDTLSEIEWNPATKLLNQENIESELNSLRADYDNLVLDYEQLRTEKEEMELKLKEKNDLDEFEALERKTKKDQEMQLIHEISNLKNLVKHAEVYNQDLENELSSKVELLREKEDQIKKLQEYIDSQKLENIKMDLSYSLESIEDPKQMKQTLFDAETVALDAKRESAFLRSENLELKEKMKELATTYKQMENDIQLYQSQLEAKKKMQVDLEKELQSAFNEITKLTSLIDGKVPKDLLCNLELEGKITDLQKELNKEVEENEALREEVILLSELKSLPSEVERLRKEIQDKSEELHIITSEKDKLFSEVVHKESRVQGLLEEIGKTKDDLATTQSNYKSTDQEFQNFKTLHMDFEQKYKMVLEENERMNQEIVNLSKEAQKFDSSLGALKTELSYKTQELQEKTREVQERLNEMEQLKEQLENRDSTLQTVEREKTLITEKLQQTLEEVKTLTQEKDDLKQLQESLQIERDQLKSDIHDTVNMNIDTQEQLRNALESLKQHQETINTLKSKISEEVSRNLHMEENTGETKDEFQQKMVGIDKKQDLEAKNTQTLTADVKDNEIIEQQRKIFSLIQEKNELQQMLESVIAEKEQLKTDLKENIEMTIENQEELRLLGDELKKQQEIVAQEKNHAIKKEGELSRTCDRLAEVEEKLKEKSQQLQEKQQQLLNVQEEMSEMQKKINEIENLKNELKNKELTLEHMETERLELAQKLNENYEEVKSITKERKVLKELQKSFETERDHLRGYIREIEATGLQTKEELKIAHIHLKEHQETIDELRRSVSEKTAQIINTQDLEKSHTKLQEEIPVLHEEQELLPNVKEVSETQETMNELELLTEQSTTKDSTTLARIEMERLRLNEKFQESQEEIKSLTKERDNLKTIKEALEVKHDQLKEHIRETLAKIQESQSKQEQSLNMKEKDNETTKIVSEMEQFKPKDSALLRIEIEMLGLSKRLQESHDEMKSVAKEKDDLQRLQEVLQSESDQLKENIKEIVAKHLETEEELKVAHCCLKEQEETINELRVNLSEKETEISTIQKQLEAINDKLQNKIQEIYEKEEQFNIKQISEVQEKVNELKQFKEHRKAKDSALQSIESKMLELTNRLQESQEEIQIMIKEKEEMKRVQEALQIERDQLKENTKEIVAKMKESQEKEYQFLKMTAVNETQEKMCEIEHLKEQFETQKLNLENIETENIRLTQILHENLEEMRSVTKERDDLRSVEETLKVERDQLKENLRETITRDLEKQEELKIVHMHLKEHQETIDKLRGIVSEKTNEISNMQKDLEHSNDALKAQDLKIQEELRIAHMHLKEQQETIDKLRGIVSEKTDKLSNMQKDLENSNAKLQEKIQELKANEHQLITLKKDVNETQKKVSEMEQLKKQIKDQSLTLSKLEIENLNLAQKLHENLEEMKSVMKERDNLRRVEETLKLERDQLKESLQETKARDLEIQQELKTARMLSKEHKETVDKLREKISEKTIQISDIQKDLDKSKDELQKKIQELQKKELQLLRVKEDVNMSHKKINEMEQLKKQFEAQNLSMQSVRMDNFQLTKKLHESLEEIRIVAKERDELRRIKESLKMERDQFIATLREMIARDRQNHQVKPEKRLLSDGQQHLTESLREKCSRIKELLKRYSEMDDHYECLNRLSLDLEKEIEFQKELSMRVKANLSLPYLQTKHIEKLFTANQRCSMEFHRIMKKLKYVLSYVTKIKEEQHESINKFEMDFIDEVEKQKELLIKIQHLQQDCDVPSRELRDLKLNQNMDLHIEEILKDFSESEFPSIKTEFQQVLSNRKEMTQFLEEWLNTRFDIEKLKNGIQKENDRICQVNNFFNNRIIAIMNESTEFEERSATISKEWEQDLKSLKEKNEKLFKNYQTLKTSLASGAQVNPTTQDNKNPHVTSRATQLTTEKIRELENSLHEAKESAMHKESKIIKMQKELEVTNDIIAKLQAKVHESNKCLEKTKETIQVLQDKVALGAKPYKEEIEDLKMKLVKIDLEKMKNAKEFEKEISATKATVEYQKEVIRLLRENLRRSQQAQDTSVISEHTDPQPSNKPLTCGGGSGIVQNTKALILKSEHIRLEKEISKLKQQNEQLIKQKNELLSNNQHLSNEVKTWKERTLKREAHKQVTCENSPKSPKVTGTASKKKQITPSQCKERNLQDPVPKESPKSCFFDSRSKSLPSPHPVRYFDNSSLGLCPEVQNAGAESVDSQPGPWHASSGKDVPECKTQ

Activity [1] | Activity [2] | Activity [3] | SMILES | GI50 (SK-OV-3) | GI50 (MCF7) | GI50 (DU-145)
99.4% | 99.1% | 97.4% | CC(C)C(c1nc2cc(Cl)ccc2c(=O)n1Cc1ccccc1)N(CCCN)C(=O)c1cccc(F)c1 (racemic) | 5.7 µM | 2900 nM | 3300 nM
98.8% | 97.9% | 97.9% | CC(C)[C@@H](c1nc2cc(Cl)ccc2c(=O)n1Cc1ccccc1)N(CCCN)C(=O)c1ccccc1F | 0.85 µM | 2000 nM | 720 nM
97.3% | 102% | 98% | Cc1ccc(C(=O)N(CCCN)[C@@H](c2nc3cc(Cl)ccc3c(=O)n2Cc2ccccc2)C(C)C)cc1 [ISPINESIB] | – | – | –
97.9% | 96.8% | 99.1% | Cc1ccc(C(=O)N(CCCN)[C@H](c2nc3cc(Cl)ccc3c(=O)n2Cc2ccccc2)C(C)C)cc1 | – | – | –
98.9% | 98.9% | 100% | CC(C)[C@@H](c1nc2cc(Cl)ccc2c(=O)n1Cc1ccccc1)N(CCCN)C(=O)c1cccc(F)c1 | 1.1 µM | 630 nM | 520 nM
98.7% | 99.2% | 97.4% | CC(C)[C@@H](c1nc2cc(Cl)ccc2c(=O)n1Cc1ccccc1)N(CCCN)C(=O)c1ccc(F)cc1 | 0.5 µM | 1100 nM | 350 nM
99.4% | 97.2% | 99.1% | CC(C)[C@H](c1nc2cc(Cl)ccc2c(=O)n1Cc1ccccc1)N(CCCN)C(=O)c1ccccc1F | 5.35 µM | 3000 nM | 5600 nM
101% | 97.1% | 99.8% | CC(C)[C@H](c1nc2cc(Cl)ccc2c(=O)n1Cc1ccccc1)N(CCCN)C(=O)c1ccc(F)cc1 | 15.4 µM | 2500 nM | 2200 nM
